Reference: ChEMBL document CHEMBL5360570, “Discovery of pyrazolo[3,4-b]pyridine derivatives as novel and potent Mps1 inhibitors for the treatment of cancer” (Eur J Med Chem, 2023)

What was measured:
[1] = AUC (0 to t) in Sprague-Dawley rat at 2 mg/kg, iv measured upto 24 hrs by LC-MS/MS analysis; format: ADME, organism-based; design: dose 2 mg/kg, time < 24 hrs, route iv; settings: in vivo
[2] = tested on: MDA-MB-468; assay: cells; format: functional, cell-based; settings: Homo sapiens, MDA-MB-468, 72 h
Description: Antiproliferative activity against human MDA-MB-468 cells assessed inhibition of cell growth incubated for 72 hrs by CCK-8 assay

[3] = biological target: ALK-TPM3 (Homo sapiens) (UniProt Q9UM73+P06753); assay: Inhibition of ALK-TPM3 (unknown origin) assessed as residual activity at 1 uM relative to control; format: protein assay
[4] = Antiproliferative activity against human RBE cells assessed inhibition of cell growth incubated for 72 hrs by CCK-8 assay; format: functional, cell-based
[5] = tested on: MV4-11; assay: Antiproliferative activity against human MV4-11 cells assessed inhibition of cell growth incubated for 72 hrs by CCK-8 assay; format: functional, cell-based; settings: MV4-11, 72 h
[6] = Toxicity in BALB/c nude mouse xenografted with human MDA-MB-468 cells assessed as change in body weight at 30 mg/kg, iv administered once daily for 21 days […]; format: organism-based; settings: in vivo, 504 h, time 21 day
[7] = biological target: T1, Dual specificity protein kinase TTK (Homo sapiens, UniProt P33981); assay: Inhibition of Mps1 (unknown origin) pretreated for 10 mins followed by substrate addition and measured after 60 mins in presence of ATP by ADP-glo kinase assay
T1 sequence (P33981 whole entry): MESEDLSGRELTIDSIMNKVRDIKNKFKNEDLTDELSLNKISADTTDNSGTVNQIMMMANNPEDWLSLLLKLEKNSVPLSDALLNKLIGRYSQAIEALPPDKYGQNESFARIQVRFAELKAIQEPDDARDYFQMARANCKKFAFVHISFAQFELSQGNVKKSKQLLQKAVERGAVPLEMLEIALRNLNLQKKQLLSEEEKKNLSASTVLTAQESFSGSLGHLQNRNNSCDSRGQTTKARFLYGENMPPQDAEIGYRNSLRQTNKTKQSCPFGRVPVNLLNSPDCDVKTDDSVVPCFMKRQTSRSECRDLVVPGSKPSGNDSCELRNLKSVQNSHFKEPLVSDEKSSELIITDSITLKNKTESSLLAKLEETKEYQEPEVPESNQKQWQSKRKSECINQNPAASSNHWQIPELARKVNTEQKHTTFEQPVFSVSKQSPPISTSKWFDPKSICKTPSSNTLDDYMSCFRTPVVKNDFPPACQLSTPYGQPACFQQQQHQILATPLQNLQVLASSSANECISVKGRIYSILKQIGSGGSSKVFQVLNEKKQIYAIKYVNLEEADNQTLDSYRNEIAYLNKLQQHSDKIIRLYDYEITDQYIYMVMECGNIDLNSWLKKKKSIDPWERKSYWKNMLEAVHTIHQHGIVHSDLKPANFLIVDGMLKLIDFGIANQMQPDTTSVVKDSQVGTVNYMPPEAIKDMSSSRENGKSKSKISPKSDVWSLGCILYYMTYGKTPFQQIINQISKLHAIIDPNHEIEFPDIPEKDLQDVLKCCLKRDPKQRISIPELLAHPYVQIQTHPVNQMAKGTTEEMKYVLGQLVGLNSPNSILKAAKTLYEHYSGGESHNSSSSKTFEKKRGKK

[8] = Tmax in Sprague-Dawley rat at 10 mg/kg, po measured upto 24 hrs by LC-MS/MS analysis; format: ADME, organism-based; settings: in vivo
[9] = tested on: ALK tyrosine kinase receptor (Homo sapiens), Q9UM73 [L1152R]; assay: Inhibition of ALK L1152R mutant (unknown origin) assessed as residual activity at 1 uM relative to control
[10] = biological target: Serine/threonine-protein kinase SIK1 (Homo sapiens) (UniProt P57059); assay: Inhibition of SIK1 (unknown origin) assessed as residual activity at 1 uM relative to control
[11] = biological target: MAP/microtubule affinity-regulating kinase 4 (Homo sapiens) (UniProt Q96L34); assay: Inhibition of MARK4 (unknown origin) assessed as residual activity at 1 uM relative to control
MAP/microtubule affinity-regulating kinase 4 (Homo sapiens), sequence (Q96L34 whole entry): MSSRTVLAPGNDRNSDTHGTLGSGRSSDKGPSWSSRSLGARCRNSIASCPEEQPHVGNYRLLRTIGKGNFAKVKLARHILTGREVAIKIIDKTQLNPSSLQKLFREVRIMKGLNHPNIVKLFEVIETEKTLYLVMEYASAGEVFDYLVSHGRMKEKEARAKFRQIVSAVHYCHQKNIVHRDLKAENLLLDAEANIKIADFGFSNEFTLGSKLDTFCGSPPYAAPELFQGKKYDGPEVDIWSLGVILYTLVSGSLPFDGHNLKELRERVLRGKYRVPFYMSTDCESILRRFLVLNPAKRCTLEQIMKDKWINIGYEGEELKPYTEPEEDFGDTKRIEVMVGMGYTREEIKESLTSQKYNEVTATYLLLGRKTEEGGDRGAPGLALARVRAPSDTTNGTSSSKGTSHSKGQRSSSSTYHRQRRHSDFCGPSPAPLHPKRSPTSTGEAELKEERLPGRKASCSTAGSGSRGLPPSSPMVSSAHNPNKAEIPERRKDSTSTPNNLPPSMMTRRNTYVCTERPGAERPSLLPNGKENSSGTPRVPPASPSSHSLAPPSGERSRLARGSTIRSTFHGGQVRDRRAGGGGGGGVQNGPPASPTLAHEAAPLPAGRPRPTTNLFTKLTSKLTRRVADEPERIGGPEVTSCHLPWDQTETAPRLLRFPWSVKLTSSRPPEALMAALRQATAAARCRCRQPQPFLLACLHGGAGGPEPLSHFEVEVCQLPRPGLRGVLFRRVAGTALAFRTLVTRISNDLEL

ALK tyrosine kinase receptor (Homo sapiens), Q9UM73 [L1152R], sequence (Q9UM73 whole entry L1152R): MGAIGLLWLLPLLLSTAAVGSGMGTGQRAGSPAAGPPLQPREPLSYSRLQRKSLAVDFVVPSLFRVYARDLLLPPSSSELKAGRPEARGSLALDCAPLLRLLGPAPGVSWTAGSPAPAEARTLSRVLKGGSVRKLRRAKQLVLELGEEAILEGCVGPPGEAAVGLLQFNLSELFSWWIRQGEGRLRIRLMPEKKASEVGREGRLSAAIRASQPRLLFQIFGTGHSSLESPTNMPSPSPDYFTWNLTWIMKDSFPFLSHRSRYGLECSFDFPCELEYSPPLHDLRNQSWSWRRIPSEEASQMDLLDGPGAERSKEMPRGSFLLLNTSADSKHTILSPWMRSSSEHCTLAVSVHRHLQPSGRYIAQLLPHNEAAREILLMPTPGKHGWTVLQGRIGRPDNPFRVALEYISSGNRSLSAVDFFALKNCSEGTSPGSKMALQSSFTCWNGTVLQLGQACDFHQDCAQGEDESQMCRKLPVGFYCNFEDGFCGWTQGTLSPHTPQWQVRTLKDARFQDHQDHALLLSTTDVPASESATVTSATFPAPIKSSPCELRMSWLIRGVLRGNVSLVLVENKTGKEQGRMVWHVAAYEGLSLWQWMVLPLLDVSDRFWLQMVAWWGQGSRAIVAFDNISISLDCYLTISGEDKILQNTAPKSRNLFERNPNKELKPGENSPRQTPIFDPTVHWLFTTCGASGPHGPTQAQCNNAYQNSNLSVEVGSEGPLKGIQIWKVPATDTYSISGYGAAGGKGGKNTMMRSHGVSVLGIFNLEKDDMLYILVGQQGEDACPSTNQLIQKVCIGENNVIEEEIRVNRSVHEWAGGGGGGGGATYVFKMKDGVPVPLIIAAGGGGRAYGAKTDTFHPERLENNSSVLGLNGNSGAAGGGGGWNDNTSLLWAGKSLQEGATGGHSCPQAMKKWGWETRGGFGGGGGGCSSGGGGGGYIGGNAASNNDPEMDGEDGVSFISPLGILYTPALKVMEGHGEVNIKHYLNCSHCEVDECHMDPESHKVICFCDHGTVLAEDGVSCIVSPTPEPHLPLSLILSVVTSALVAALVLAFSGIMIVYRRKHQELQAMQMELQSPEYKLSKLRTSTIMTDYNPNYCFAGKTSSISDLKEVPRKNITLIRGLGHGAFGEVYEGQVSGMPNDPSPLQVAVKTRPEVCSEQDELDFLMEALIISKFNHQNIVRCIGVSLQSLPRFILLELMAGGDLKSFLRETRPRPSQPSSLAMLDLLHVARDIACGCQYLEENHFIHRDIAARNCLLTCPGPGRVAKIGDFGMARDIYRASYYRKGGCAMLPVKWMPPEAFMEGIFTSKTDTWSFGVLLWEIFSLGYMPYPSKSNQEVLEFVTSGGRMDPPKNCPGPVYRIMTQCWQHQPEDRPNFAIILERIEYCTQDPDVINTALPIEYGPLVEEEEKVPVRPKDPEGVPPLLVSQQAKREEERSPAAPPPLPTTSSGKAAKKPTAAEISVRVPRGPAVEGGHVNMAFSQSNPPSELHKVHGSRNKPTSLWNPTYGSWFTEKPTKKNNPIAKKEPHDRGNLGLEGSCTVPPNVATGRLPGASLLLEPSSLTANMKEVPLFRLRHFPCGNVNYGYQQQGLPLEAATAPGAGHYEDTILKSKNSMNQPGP
ALK-TPM3 (Homo sapiens), sequence (P06753 whole entry, looked up): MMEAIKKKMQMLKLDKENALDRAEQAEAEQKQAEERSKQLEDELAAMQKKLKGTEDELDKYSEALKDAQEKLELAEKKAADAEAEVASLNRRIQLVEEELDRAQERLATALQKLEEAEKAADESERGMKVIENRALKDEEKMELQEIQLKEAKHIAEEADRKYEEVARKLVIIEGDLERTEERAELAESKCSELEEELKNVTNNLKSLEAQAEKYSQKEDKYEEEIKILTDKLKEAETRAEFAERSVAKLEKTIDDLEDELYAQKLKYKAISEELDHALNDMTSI
ALK-TPM3 (Homo sapiens), sequence (Q9UM73 whole entry, looked up): as the sequence (Q9UM73 whole entry L1152R) above, with R1152L counted along it
Serine/threonine-protein kinase SIK1 (Homo sapiens), sequence (P57059 whole entry): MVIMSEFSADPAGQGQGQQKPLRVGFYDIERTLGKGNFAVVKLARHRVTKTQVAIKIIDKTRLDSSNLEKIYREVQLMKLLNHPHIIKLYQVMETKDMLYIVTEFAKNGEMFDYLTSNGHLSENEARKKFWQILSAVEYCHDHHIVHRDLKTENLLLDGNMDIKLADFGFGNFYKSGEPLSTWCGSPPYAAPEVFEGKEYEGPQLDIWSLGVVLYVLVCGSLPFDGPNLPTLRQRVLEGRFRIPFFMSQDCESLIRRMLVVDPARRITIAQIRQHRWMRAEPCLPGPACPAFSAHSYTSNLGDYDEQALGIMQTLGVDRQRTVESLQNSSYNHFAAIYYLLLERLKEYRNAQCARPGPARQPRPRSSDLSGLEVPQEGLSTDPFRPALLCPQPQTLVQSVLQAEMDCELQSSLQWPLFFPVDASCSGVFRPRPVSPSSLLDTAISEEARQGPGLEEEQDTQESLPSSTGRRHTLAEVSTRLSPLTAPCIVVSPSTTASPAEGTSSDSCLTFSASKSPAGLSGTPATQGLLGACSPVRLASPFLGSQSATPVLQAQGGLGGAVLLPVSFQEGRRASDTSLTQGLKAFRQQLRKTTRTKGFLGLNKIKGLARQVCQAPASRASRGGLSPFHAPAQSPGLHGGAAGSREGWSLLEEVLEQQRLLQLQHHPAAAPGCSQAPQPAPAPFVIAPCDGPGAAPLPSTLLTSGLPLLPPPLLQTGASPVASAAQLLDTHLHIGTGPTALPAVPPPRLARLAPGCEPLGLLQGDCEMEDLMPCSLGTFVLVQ

AUC(0-t) at 24 h [1]: 1050 ng·h/mL
IC50 [2]: 0.221 µM
Activity [3]: < 10%
IC50 [5]: 0.823 µM
IC50 [7]: 0.0026 µM
Tmax [8]: 20 min
Activity [9]: < 10%
Activity [10]: < 10%
Activity [11]: < 10%
SMILES: CCc1cccc(CC)c1N1CCn2cc(-c3nc(Nc4ccc(N5CCN(C(C)=O)CC5)cc4OC)nc4[nH]ncc34)cc2C1=O
IC50 [4]: > 10 µM
Activity [6]: Non-Toxic
